Measurements from ChEMBL document CHEMBL3351361, “Fragment-based screening of the bromodomain of ATAD2” (J Med Chem, 2014).

Molecular target: T1, ATPase family AAA domain-containing protein 2 (Homo sapiens, UniProt Q6PL18)
T1 sequence (Q6PL18 whole entry): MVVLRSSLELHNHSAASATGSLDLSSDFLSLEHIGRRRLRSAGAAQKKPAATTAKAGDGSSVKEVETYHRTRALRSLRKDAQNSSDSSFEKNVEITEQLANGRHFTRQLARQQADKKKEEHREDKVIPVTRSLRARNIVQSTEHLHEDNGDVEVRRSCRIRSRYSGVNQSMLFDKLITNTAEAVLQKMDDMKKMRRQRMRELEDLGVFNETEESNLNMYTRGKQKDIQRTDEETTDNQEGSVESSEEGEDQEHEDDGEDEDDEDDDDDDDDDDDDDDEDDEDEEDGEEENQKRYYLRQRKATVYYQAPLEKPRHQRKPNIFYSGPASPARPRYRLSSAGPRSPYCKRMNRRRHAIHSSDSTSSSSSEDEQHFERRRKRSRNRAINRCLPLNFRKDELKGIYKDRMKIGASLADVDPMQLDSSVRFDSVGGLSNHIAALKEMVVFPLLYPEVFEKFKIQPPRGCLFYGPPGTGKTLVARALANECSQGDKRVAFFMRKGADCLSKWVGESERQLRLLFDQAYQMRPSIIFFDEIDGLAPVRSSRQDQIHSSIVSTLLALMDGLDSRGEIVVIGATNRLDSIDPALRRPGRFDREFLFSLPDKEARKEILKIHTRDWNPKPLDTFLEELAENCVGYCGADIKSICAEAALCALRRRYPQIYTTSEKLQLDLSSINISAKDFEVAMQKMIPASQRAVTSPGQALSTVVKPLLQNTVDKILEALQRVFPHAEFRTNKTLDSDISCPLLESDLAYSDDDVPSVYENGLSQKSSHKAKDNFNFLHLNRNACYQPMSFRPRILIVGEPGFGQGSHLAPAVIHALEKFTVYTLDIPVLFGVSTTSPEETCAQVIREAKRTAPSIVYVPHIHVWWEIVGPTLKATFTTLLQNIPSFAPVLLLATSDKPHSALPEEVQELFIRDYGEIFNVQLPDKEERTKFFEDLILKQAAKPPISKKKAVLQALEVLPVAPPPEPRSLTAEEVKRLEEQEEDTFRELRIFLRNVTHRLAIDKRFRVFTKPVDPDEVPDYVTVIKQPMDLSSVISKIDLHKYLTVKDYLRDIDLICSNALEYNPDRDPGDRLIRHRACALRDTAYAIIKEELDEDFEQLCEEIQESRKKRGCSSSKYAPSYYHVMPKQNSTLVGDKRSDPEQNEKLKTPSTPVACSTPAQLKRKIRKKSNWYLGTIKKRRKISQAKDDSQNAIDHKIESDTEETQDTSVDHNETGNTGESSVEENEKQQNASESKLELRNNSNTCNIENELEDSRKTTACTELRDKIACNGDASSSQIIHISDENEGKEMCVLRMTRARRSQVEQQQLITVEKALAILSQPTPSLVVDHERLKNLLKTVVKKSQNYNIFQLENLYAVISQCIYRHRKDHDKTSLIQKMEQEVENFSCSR
Experiment: Binding affinity to human ATAD2 (979 to 1108 aa) expressed in Escherichia coli BL21 (DE3) by SOFAST-HMQC NMR spectroscopy

Kd	Structure (SMILES)
350 µM	Nc1cccc(-c2n[nH]c(-c3ccccc3)n2)c1
600 µM	Cc1cc2c(cc1N)n(C)c(=O)n2C
